Reference: patent US11304919B2, “Utilization of cilastatin in inhibiting renal disorder” (NIIGATA UNIVERSITY, priority 2018, dated 2022)

Tests used:
C57BL/6J mice [1] = experiment: Inhibition of contrast-induced renal injuries in murine contrast nephropathy model (Example 2); assay type: in vivo, mouse
Experimental: In order to confirm the ability of cilastatin to inhibit renal injuries, C57BL/6J mice were simultaneously administered with an iodinated contrast medium and cilastatin, and the results were analyzed.
Left kidneys were extracted from the C57BL/6J mice, and 14 days later, right kidney pedicles were ligated for 30 minutes. Thereafter, reperfusion was carried out. […]
a) Contrast medium+cilastatin-treated group: 200 μL of iomeprol (CM)+400 mg/kg cilastatin (CS) (100 LL) b) Contrast medium+normal saline-treated group: 200 μL of iomeprol (CM)+100 μL of NS For each of the groups, after 48 hours from the medication, blood and urine samples were collected, and serum Cr, MN and cystatin C levels, and urinary Cr, NAG and KIM-1 levels were measured. Further, right kidneys were extracted and histologically evaluated by immunostaining with KIM-1 and staining with PAS. […] Serum cystatin C and urinary KIM-1 measurements were contracted to Oriental Yeast Co., Ltd.
0.5±: Clear but weak granular staining present focally along the luminal surface of non-atrophic proximal tubules 1+: Clear but weak granular staining completely surrounding the luminal surface of non-atrophic proximal tubules 2+: Moderately intense granular staining completely surrounding the luminal surface of non-atrophic proximal tubules and extending into intercellular junctions 3+: Strong large granular staining completely surrounding the luminal surface of non-atrophic proximal tubules and extending into intercellular junctions […]
Individuals meeting these criteria were regarded as individuals with onset of contrast nephropathy.

C57BL/6J mice [2] = experiment: Murine model of contrast nephropathy (Reference Example 1); assay type: in vivo, mouse
Experimental: Murine models of contrast nephropathy were constructed.
Left kidneys were extracted from C57BL/6J mice (male, aged 9-12 weeks, Charles River Laboratories International), and 14 days later, right kidney pedicles were ligated for 30 minutes. Thereafter, reperfusion was carried out. For the iomeprol-treated group, 200 μL of iomeprol was administered from the tail vein after 24 hours from the start of reperfusion. For the control group, 200 μL of normal saline instead of iomeprol was administered from the tail vein. After 48 hours from the administration, the animals in both groups were euthanized and evaluated.
For 24 hours before euthanization, urine samples were collected using a metabolic cage. […] The collected blood samples were centrifuged for 30 minutes at 800 g at room temperature to separate and collect the serum. The obtained urine and serum samples were stored at −80° C. until analysis.
For biochemical evaluation of renal injuries, serum creatinine (Cr) and urea nitrogen (MN) levels, and urinary Cr and β-D-N-acetylglucosaminidase (NAG) were measured. Serum MN and Cr measurements were contracted to Oriental Yeast Co., Ltd., and urinary NAG and Cr measurements were to SRL, Inc.
The obtained thin slices were stained with periodic acid-Shiff (PAS) and immunostained with the renal injury marker Kidney Injury Molecule-1 (KIM-1). The immunostaining was performed using VECTASTAIN Elite ABC Kit (Vector Laboratories, Inc.).

megalin = megalin (Rattus norvegicus, UniProt P98158); experiment: Direct binding of contrast solid-phased magnetic beads to megalin in brush border proteins, WB with anti-megalin antibody (Reference Example 4); set-up: the cortex portions of Sprague-Dawley (SD) rats were ground to prepare a suspension; from tissue; host or cells: Sprague-Dawley rat kidney cortex (brush border proteins, method of Orlando et al.); settings: 0 mM and 10 mM iomeprol solid-phased beads; rat BBP 1 mg/mL; 4° C., 4 h; FIG. 20
Chain of megalin (P98158 26-4660): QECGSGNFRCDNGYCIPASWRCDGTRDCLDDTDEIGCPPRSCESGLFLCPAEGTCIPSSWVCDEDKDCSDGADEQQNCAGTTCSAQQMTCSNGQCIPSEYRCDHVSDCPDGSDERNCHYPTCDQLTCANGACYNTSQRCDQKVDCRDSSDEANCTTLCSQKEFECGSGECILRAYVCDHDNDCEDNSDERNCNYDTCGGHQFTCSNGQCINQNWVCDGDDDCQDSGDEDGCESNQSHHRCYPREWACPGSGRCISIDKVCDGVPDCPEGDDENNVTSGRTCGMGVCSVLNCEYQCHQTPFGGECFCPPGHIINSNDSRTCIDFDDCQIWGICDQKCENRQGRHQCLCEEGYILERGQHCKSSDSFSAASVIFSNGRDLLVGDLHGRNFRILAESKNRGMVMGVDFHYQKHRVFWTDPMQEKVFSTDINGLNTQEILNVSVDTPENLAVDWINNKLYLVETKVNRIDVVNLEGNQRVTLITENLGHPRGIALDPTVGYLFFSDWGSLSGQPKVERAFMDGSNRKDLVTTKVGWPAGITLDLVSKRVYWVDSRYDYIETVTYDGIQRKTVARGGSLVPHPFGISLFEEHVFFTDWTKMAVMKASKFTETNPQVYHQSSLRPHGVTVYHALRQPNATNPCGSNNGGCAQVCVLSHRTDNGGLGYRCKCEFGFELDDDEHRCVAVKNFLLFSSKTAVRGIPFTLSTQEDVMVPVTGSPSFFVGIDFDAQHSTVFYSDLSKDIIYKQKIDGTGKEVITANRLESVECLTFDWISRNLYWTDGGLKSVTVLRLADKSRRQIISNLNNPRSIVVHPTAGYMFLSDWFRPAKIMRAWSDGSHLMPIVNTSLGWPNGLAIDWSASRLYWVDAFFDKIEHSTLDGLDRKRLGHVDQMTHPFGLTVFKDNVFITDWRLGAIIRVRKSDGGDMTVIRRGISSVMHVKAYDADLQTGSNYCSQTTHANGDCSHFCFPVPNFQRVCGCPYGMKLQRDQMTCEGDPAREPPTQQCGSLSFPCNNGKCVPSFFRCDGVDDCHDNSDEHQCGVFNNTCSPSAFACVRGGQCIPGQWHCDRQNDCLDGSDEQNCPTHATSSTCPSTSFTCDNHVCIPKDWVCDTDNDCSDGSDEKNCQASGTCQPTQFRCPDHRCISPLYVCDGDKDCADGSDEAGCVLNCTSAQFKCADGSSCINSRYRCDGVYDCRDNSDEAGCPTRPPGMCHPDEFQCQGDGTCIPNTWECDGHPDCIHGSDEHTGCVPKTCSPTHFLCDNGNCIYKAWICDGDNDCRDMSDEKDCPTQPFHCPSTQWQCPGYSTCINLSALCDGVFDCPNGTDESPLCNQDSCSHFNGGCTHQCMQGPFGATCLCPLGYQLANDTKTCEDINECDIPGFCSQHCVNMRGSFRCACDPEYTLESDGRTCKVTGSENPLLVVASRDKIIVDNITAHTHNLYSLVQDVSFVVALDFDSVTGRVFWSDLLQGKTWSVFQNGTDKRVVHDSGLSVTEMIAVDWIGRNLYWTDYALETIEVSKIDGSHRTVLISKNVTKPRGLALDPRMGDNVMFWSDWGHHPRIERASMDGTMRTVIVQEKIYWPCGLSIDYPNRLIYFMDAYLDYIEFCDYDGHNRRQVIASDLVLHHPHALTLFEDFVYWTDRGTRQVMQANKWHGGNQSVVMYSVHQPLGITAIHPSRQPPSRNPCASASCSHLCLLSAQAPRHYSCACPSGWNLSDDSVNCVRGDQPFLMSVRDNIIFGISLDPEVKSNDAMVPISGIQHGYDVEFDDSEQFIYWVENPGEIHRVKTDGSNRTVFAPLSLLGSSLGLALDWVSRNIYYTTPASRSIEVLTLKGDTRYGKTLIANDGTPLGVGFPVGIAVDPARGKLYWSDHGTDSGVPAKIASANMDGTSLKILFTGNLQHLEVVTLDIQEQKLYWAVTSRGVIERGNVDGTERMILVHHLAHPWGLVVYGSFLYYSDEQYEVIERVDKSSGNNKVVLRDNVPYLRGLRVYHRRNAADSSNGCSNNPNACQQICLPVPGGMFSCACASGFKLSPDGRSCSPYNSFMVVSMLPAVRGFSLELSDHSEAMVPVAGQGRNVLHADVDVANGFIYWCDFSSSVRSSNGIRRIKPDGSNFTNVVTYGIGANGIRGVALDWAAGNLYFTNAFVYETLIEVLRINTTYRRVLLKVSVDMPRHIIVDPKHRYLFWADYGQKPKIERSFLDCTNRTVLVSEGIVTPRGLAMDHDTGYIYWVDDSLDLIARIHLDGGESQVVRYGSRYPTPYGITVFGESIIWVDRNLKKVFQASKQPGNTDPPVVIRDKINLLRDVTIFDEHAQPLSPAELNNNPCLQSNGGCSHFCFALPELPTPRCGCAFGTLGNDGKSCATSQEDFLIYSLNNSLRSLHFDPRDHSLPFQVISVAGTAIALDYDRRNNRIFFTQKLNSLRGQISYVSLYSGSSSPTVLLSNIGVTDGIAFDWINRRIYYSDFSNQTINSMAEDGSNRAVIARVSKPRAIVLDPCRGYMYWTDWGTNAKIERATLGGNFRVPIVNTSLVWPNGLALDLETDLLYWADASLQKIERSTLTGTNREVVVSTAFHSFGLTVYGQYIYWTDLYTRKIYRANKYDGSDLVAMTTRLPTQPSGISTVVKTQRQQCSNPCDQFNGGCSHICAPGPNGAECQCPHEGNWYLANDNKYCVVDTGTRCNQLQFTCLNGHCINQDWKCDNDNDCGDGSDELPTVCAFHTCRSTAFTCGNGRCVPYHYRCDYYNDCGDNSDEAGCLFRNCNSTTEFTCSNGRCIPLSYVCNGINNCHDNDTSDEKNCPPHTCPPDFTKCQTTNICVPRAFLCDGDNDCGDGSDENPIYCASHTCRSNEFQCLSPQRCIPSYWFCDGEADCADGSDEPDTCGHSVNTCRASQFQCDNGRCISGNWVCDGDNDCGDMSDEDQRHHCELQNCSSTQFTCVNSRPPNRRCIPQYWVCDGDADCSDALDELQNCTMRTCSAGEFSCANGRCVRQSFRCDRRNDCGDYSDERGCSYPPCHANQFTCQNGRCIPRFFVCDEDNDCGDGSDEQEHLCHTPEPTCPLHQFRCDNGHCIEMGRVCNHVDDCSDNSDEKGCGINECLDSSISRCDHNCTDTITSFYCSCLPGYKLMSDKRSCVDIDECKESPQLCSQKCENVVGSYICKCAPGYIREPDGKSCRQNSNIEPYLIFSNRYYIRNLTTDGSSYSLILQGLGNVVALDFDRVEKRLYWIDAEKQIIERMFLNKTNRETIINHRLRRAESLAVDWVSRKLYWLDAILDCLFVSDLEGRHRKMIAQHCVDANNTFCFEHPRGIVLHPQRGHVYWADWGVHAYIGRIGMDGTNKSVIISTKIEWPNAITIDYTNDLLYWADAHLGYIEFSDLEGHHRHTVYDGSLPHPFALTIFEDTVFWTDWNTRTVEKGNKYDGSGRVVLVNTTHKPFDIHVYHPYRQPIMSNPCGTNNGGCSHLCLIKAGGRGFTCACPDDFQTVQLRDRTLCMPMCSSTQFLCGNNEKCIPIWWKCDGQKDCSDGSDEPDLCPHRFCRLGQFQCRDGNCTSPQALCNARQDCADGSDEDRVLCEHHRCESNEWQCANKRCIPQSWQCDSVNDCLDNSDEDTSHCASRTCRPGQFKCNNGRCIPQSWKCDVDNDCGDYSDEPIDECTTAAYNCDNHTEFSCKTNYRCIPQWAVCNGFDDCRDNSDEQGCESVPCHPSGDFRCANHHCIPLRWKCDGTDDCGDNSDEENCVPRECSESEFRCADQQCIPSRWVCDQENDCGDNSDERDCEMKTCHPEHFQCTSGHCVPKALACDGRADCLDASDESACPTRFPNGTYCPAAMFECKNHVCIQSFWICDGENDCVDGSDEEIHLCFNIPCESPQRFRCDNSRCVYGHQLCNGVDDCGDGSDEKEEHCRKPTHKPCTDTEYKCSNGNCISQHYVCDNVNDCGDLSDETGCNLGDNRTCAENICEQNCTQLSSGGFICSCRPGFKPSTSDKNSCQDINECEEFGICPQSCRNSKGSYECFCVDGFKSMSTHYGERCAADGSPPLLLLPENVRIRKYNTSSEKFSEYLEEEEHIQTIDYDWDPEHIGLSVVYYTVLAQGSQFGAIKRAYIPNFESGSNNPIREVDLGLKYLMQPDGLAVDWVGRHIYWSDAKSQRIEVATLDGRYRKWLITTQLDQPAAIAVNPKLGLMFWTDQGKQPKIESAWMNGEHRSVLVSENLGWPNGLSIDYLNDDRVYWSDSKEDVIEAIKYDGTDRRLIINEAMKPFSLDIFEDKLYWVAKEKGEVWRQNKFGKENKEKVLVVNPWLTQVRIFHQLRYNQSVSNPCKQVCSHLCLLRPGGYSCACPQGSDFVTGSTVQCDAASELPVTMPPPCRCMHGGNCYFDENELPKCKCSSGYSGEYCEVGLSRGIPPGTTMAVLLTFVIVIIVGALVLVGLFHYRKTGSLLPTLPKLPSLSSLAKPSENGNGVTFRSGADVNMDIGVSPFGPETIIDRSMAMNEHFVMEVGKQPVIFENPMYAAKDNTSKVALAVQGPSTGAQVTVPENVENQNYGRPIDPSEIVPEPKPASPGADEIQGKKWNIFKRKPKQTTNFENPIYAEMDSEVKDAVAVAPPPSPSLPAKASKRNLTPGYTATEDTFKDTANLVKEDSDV
Experimental: Direct binding between an iodinated contrast medium and megalin was verified using contrast solid-phased magnetic beads.
A starting powder of iodinated contrast medium was dissolved, just before use, in glycidylmethacrylate-coated magnetic beads (FG Beads®, particle size: 0.2 μm, produced by Tamagawa Seiki Co., Ltd.) to initiate chemical bonding between surface carboxyl groups and hydroxyl groups present in the contrast medium, whereby contrast solid-phased magnetic beads were prepared.
The contrast medium iomeprol was purchased from BOC Science.
At feed concentrations of 0 mM, 3 mM and 10 mM, iomeprol was brought to a solid phase by chemical bonding. The preparation of the iomeprol solid-phased beads was contracted to Tamagawa Seiki Co., Ltd.
According to the method of Orlando, et al. (Proc. Natl. Acad. Sci. USA, 1992, vol. 89, p. 6698-6702), the cortex portions of Sprague-Dawley (SD) rats were ground to prepare a suspension, which was adjusted to a protein concentration of 1 mg/mL to obtain a BBP solution.
Five milligrams each of the 0 mM and 10 mM contrast solid-phased magnetic beads were dispersed and washed in 200 μL of 100 mM KCL buffer (20 mM HEPES-NaOH (pH 7.9), 100 mM KCl, 1 mM MgCl2, 0.2 mM CaCl2), 0.2 mM EDTA, 10% (v/v) glycerol, 0.1% NP-40, 1 mM DTT, 0.2 mM PMSF). […]

serum Cr compared to the control (NS) group (C57BL/6J mice [2]; 200 μL iomeprol tail vein 24 h after reperfusion, evaluated 48 h after administration, FIG. 1): significant (t-test) increase | PAS staining of kidney tissue (C57BL/6J mice [2]; 200 μL iomeprol, 48 h after administration, FIG. 3): formation of vacuoles was observed | megalin band in eluted samples after reaction of BBP with contrast medium-bound beads (WB) (megalin): not detected
SMILES: CN(C(=O)CO)c1c(I)c(C(=O)NCC(O)CO)c(I)c(C(=O)NCC(O)CO)c1I (stereo not shown) [iomeprol]
percentage of individuals with onset of contrast nephropathy (C57BL/6J mice [1]; 200 μL iomeprol + 100 μL normal saline, 48 h after medication): 27% | KIM-1 expression in kidney tissue (immunostaining) (C57BL/6J mice [1]; iomeprol + normal saline, individuals with increased serum creatinine, FIG. 17): widely expressed, mainly in the S1 and S2 segments | PAS staining of kidney tissue (C57BL/6J mice [1]; iomeprol + normal saline, individuals with increased serum creatinine, FIG. 19): formation of vacuoles in renal proximal tubular epithelial cells was observed | KIM-1 expression in kidney tissue (immunostaining) (C57BL/6J mice [2]; 200 μL iomeprol, 48 h after administration, FIG. 2): widely expressed mainly in the S1 and S2 segments of renal proximal tubular epithelial cells
